In patent US4576959A, “6-Substituted-4-dialkylaminotetrahydrobenz[c,d]indoles” (priority 1985, dated 1986):

Columns and labels:
[1] = target: T1, ^3 H-spiperone (^3 H-SPIP) receptor binding, cerebral cortex (Rattus norvegicus, UniProt P14842); assay: Inhibition of ^3 H-spiperone (^3 H-SPIP) specific binding in rat cerebral cortex membranes; design: species or system male Wistar rats; conditions: ^3 H-spiperone 0.6-0.7 nM, 15 minutes at 37°, pH=7.4, values in nanomoles of inhibitor, read-out: ^3 H-Ligand-IC50, ^3 H-SPIP
T1 construct: The cerebral cortex was dissected out and then homogenized and centrifuged; from tissue; host or cells: cerebral cortex membranes of male Wistar rats
T1 sequence (P14842 whole entry): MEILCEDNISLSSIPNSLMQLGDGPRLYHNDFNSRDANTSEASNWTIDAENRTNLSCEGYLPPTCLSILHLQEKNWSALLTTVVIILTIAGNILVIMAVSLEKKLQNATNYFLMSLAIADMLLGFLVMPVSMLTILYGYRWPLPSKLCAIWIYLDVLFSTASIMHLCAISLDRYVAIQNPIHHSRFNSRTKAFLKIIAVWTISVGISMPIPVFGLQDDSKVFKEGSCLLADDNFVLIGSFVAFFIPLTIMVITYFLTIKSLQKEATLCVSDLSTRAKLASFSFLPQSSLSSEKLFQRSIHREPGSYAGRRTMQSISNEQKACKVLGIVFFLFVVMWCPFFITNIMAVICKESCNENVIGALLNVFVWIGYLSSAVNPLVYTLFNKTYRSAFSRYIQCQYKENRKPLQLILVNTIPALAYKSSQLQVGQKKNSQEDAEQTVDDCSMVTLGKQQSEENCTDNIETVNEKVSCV
Method: Brain tissue was obtained from 150-200 g. male Wistar rats. The cerebral cortex was dissected out and then homogenized and centrifuged according to the method described by Nelson and coworkers, Mol. Pharmacol., 14, 983-995 (1978), using preincubation in buffer without added monoamine oxidase inhibitor in order to eliminate endogenous serotonin. For receptor binding, each sample contained 300-400 μg. of membrane protein and 10 μM pargyline in addition to the ^3 H-ligand in 1 ml. of 0.05M tris buffer, pH=7.4. The assay of serotinin binding was done following the method of Bennett and Snyder, Mol. Pharmacol., 12, 373-389 (1976), and that for tritiated spiperone according to Peroutka and Snyder, Mol. Pharmacol., 16, 687-699 (1979). The samples were incubated for 15 minutes at 37° and were then filtered through GF/C glass fiber filter pads using a Brandel M-24 cell harvester modified for receptor binding. After two 5 ml. rinses, the filter discs were put into scintillation vials and counted in 10 ml. of Amersham PCS scintillation fluid. Nonspecific binding of ^3 H-serotonin (^3 H-5HT) was determined in the presence of 10^-5 M serotonin and of ^3 H-spiperone in the presence of 10^-6 M LSD. Specific binding was calculated as the difference between total binding with no added nonradioactive compound and the nonspecific binding.

[2] = target: ^3 H-serotonin (^3 H-5HT) receptor binding, cerebral cortex; assay: Inhibition of ^3 H-serotonin (^3 H-5HT) specific binding in rat cerebral cortex membranes; design: species or system male Wistar rats; conditions: ^3 H-serotonin 2-3 nM, 15 minutes at 37°, pH=7.4, values in nanomoles of inhibitor, read-out: ^3 H-Ligand-IC50, ^3 H-5HT
[3] = tested on: central serotonin (5HIAA in hypothalamus); assay: Decrease of serotonin metabolite 5HIAA in hypothalamus as a measure of central serotonin agonist activity; type: in vivo, Wistar rats; conditions: 0.3 mg./kg. s.c., 1 hour before rats were killed; control 2.59 ± .11; * = statistically significant
Method: (§1) Secondly, as a measure of central serotonin agonist activity, the decrease of serotonin metabolites in brain was measured. Also the measure of dopamine agonist activity was indicated by changes in dopamine metabolites.
(§2) The following protocol was employed. 150-200 g. Wistar rats were given 0.3 mg./kg. subcutaneously of (±)-4-di-n-propylamino-6-substituted-1,3,4,5-tetrahydrobenz[c,d]indole.Then, 60 minutes later each rat was decapitated and the hypothalamus and striatum were dissected out and extracted. The amounts of homovanillic acid (HVA) and 3,4-dihydroxyphenylacetic acid (DOPAC) in the striatum and of 5-hydroxyindoleacetic acid (5HIAA) in the hypothalamus were measured by high-performance liquid chromatography, using electrochemical detection. Serum corticosteroids were also measured. In the table, columns 1 and 2 give the substitution pattern in the compounds of formula IV, columns 3-5, the 5HT or dopamine metabolite concentrations, and column 6, the serum corticosteroids.

[4] = tested on: dopamine (metabolites in striatum); assay: Changes in dopamine metabolites (DOPAC, HVA) in striatum as a measure of dopamine agonist activity; type: in vivo, Wistar rats; conditions: 0.3 mg./kg. s.c., 1 hour before rats were killed, * = statistically significant; for Dopamine Metabolites In Striatum, HVA: control 4.24 ± .27; for Dopamine Metabolites In Striatum, DOPAC: control 5.58 ± .38
Method: as §1, §2

[5] = Serum corticosteroids (corticosterone); type: in vivo, Wistar rats; conditions: 0.3 mg./kg. s.c., 1 hour before rats were killed; control 7 ± 1; * = statistically significant
Method: as §2

[6] = tested on: dopamine uptake in bovine striatal membrane; conditions: cited from earlier work

| SMILES | IC50 [1] | IC50 [2] | 5HIAA In Hypothalamus [3] | Dopamine Metabolites In Striatum, HVA [4] | Dopamine Metabolites In Striatum, DOPAC [4] | Serum Corticosterone [5] | dopamine agonist action (inhibiting dopamine uptake in bovine striatal membrane in vitro) [6] |
| --- | --- | --- | --- | --- | --- | --- | --- |
| CCCN(CCC)C1Cc2c[nH]c3ccc(C#N)c(c23)C1 (racemic) [(±)-4-Di-n-propylamino-6-cyano-1,3,4,5-tetrahydrobenz[c,d]indole] | 390 nM | 90 nM | 2.34 ± .07 NMoles/G | 2.27 ± .16 NMoles/G | 4.25 ± .25 NMoles/G | 47 ± 4 MCG/100 ML |  |
| CCCN(CCC)C1Cc2c[nH]c3ccc([N+](=O)[O-])c(c23)C1 (racemic) [(±)-4-Di-n-propylamino-6-nitro-1,3,4,5-tetrahydrobenz[c,d]indole] | 400 nM | 100 nM | 2.29 ± .03 NMoles/G | 2.02 ± .20 NMoles/G | 3.74 ± .11 NMoles/G | 49 ± 2 MCG/100 ML |  |
| CCCN(CCC)C1Cc2cccc3[nH]cc(c23)C1 (racemic) [(±)-4-(di-n-propyl)amino-1,3,4,5-tetrahydrobenz[c,d]indole] |  |  |  |  |  |  | selective dopamine agonist |
| CCCN(CCC)C1Cc2c[nH]c3ccc(C(N)=O)c(c23)C1 (racemic) [(±)-4-Di-n-propylamino-6-carbamoyl-1,3,4,5-tetrahydrobenz[c,d]indole] | 4980 nM | 60 nM | 1.58 ± .03 NMoles/G | 4.12 ± .27 NMoles/G | 6.23 ± .56 NMoles/G | 49 ± 2 MCG/100 ML |  |
